{
  "source": "patent US20240327385A1",
  "about": "“SUBSTITUTED PIPERIDINE COMPOUNDS AS RENIN INHIBITORS” (priority 2023, published 2024)",
  "data": [
    {"target": "human recombinant renin (Homo sapiens (Human), UniProt P00797)", "sequence (P00797 67-406)": "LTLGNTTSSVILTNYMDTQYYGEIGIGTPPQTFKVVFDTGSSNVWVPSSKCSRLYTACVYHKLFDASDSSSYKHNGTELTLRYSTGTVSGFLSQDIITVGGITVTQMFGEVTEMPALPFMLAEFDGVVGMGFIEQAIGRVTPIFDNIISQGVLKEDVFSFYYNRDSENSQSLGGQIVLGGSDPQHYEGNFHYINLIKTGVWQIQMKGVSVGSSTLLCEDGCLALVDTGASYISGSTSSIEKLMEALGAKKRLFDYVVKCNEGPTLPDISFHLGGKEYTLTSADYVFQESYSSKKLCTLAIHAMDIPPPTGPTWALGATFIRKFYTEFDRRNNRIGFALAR", "experiment": "human renin activity inhibition (SensoLyte 520 Renin Assay Kit Fluorimetric)", "format": "biochemical", "settings": "30 min preincubation at 37° C., fluorescence at 530 nm after 15 min at 37° C., read-out: IC50 (nM), inhibitory effect on human renin activity", "method": "The exemplary compounds of the disclosure were tested for their inhibitory effects on human renin activity, using a commercially available renin assay kit (SensoLyte® 520 Renin Assay Kit Fluorimetric), following the manufacture's manual.\nBriefly, human recombinant renin (from the kit) was incubated with the compound of the disclosure or buffer for 30 min at 37° C. before substrate addition. Fluorescence intensity was measured at 530 nm after an incubation of 15 min at 37° C. Data was analyzed by Prism and fitted into a sigmodal curve for IC50 calculation.", "units": {"IC50": "nM"}, "values": [
      {"smiles": "CO[C@H]1C[C@H](Nc2nc(C(C)(C)C)ncc2C(=O)N(CC(C)C)C2CNCC(C(=O)N3CCOCC3)C2)C1", "note": "(stereo partly drawn) [Compound 17, (3S)—{N-(2-methylpropyl), N-{2-tert-butyl-3-[3-(trans-methoxy)cyclobutyl]amino}pyrimidine-5-carbonyl}amino-(5R)-(morpholine-N-carbonyl)-piperidine]", "IC50": 1.5},
      {"smiles": "CO[C@H]1C[C@H](Nc2cc(C3CC3)cnc2C(=O)N(CC(C)C)C2CNCC(C(=O)N3CCOCC3)C2)C1", "note": "(stereo partly drawn) [Compound 18, (3S)—{N-(2-methylpropyl), N-{5-cyclopropyl-3-[3-(trans-methoxy)cyclobutyl]amino}pyridine-2-carbonyl}amino-(5R)-(morpholine-N-carbonyl)-piperidine]", "IC50": 1.2},
      {"smiles": "CO[C@H]1C[C@@H](Nc2cc(C3CC3)cnc2C(=O)N(CC(C)C)C2CNCC(C(=O)N3CCOCC3)C2)C1", "note": "(stereo partly drawn) [Compound 19, (3S)—{N-(2-methylpropyl), N-{5-cyclopropyl-3-[3-(cis-methoxy)cyclobutyl]amino}pyridine-2-carbonyl}amino-(5R)-(morpholine-N-carbonyl)-piperidine]", "IC50": 1.5},
      {"smiles": "CC(C)CN(C(=O)c1ncc(C2CC2)cc1NC1CCC1)C1CNCC(C(=O)N2CCOCC2)C1", "note": "[Compound 20, (3S)—[N-(2-methylpropyl), N-(5-cyclopropyl-3-cyclobutylamino)pyridine-2-carbonyl]amino-(5R)-(morpholine-N-carbonyl)-piperidine]", "IC50": 1.9},
      {"smiles": "CC(C)CN(C(=O)c1ncc(C2CC2)cc1NC1CC1)C1CNCC(C(=O)N2CCOC[C@@H]2C)C1", "note": "(stereo partly drawn) [Compound 21, (3S)—[N-(2-methylpropyl), N-(5-cyclopropyl-3-cyclopropylamino)pyridine-2-carbonyl]amino-(5R)-[(3S)-methylmorpholine-N-carbonyl]-piperidine]", "IC50": 1.4},
      {"smiles": "CO[C@H]1C[C@H](Nc2cc(C3CC3)cnc2C(=O)N(CC(C)C)C2CNC[C@H](c3nnc(C)o3)C2)C1", "note": "(stereo partly drawn) [Compound 22, (3S)—{N-(2-methylpropyl), N-{5-cyclopropyl-3-[3-(trans-methoxy)cyclobutyl]amino}pyridine-2-carbonyl}amino-(5R)-(5-methyl-1,3,4-oxadiazol-2-yl)-piperidine]", "IC50": 1.3},
      {"smiles": "CO[C@H]1C[C@H](Nc2cc(C3CC3)cnc2C(=O)N(CC(C)C)C2CNC[C@H](c3nnc(C4CC4)o3)C2)C1", "note": "(stereo partly drawn) [Compound 23, (3S)—{N-(2-methylpropyl), N-{5-cyclopropyl-3-[3-(trans-methoxy)cyclobutyl]amino}pyridine-2-carbonyl}amino-(5R)-(5-cyclopropyl-1,3,4-oxadiazol-2-yl)-piperidine]", "IC50": 1.2},
      {"smiles": "CO[C@H]1C[C@H](Nc2cc(C3CC3)cnc2C(=O)N(CC(C)C)C2CNC[C@H](c3nnc(C4CC(F)(F)C4)o3)C2)C1", "note": "(stereo partly drawn) [Compound 24, (3S)—{N-(2-methylpropyl), N-{5-cyclopropyl-3-[3-(trans-methoxy)cyclobutyl]amino}pyridine-2-carbonyl}amino-(5R)-(3,3-diflurorocyclobutyl-1,3,4-oxadiazol-2-yl)-piperidine]", "IC50": 1},
      {"smiles": "CC(C)CN(C(=O)c1ncc(C2CC2)cc1NC1CC1)[C@@H]1CNC[C@H](C(=O)N2CCOCC2)C1", "note": "[Compound 25, (3S)—[N-(2-methylpropyl), N-(5-cyclopropyl-3-cyclopropylamino)pyridine-2-carbonyl]amino-(5R)-(morpholine-N-carbonyl)-piperidine]", "IC50": "< 10"},
      {"smiles": "CO[C@H]1C[C@H](Nc2cc(C3CC3)cnc2C(=O)N(CC(C)C)[C@H]2CCCNC2)C1", "note": "[Compound 26, (3S)—{N-(2-methylpropyl), N-{5-cyclopropyl-3-[3-(trans-methoxy)cyclobutyl]amino}pyridine-2-carbonyl}amino-piperidine]", "IC50": "< 20"},
      {"smiles": "CC[C@H]1COCCN1C(=O)[C@H]1CNC[C@@H](N(CC(C)C)C(=O)c2ncc(C3CC3)cc2N[C@H]2C[C@H](OC)C2)C1", "note": "[Compound 27, (3S)—{N-(2-methylpropyl), N-{5-cyclopropyl-3-[3-(trans-methoxy)cyclobutyl]amino}pyridine-2-carbonyl}amino-(5R)-[(3S)-ethylmorpholine-N-carbonyl]-piperidine]", "IC50": "< 250"},
      {"smiles": "CO[C@H]1C[C@H](Nc2cc(C3CC3)cnc2C(=O)N(CC(C)C)[C@@H]2CNC[C@H](c3noc(C)n3)C2)C1", "note": "[Compound 28, (3S)—{N-(2-methylpropyl), N-{5-cyclopropyl-3-[3-(trans-methoxy)cyclobutyl]amino}pyridine-2-carbonyl}amino-(5R)-(5-methyl-1,2,4-oxadiazol-3-yl)-piperidine]", "IC50": "< 10"},
      {"smiles": "CO[C@H]1C[C@H](Nc2cc(C3CC3)cnc2C(=O)N(CC(C)C)[C@@H]2CNC[C@H](c3nc(C)no3)C2)C1", "note": "[Compound 29, (3S)—{N-(2-methylpropyl), N-{5-cyclopropyl-3-[3-(trans-methoxy)cyclobutyl]amino}pyridine-2-carbonyl}amino-(5R)-(3-methyl-1,2,4-oxadiazol-5-yl)-piperidine]", "IC50": "< 10"},
      {"smiles": "CC(C)CN(C(=O)c1ncc(C2CC2)cc1NC1COC1)[C@@H]1CNC[C@H](C(=O)N2CCOCC2)C1", "note": "[Compound 30]", "IC50": "< 10"},
      {"smiles": "CO[C@H]1C[C@H](Nc2cccnc2C(=O)N(CC(C)C)[C@@H]2CNCC(c3nnc(C4CC4)o3)C2)C1", "note": "(stereo partly drawn) [Compound 31, (3S)—{N-(2-methylpropyl), N-[3-(3-trans-methoxy)cyclobutyl]amino-pyridine-2-carbonyl}amino-(5R)-(5-cyclopropyl-1,3,4-oxadiazol-2-yl)-piperidine]", "IC50": "< 10"},
      {"smiles": "CC(C)CN(C(=O)c1ncc(C2CC2)cc1NC1COC1)[C@@H]1CNCC(c2nnc(C3CC3)o2)C1", "note": "(stereo partly drawn) [Compound 32, (3S)—{N-(2-methylpropyl), N-[5-cyclopropyl-3-(oxetan-3-yl)amino]pyridine-2-carbonyl}amino-(5R)-(5-cyclopropyl-1,3,4-oxadiazol-2-yl)-piperidine]", "IC50": "< 10"},
      {"smiles": "CO[C@H]1C[C@H](Nc2cc(C3CC3)nnc2C(=O)N(CC(C)C)[C@@H]2CNC[C@H](C(=O)N3CCOC[C@@H]3C)C2)C1", "note": "[Compound 33, (3S)—{N-(2-methylpropyl), N-{6-cyclopropyl-4-[3-(trans-methoxy)cyclobutyl]amino}pyridazine-3-carbonyl}amino-(5R)-[(3S)-3-methylmorpholine-4-carbonyl]-piperidine]", "IC50": "< 250"},
      {"smiles": "CO[C@H]1C[C@H](Nc2cc(C3CC3)cnc2C(=O)N(CC(C)C)[C@@H]2CNC[C@H](CO)C2)C1", "note": "[Compound 35, (3S)—{N-(2-methylpropyl), N-{5-cyclopropyl-3-[3-(trans-methoxy)cyclobutyl]amino}pyridine-2-carbonyl}amino-(5R)-hydroxymethyl-piperidine]", "IC50": "< 20"},
      {"smiles": "CC(C)CN(C(=O)c1ncc(C2CC2)cc1NC1COC1)[C@H]1CCCNC1", "note": "[Compound 36, (3S)—{N-(2-methylpropyl), N-[5-cyclopropyl-3-(oxetan-3-yl)amino]pyridine-2-carbonyl}amino-piperidine]", "IC50": "< 50"},
      {"smiles": "CO[C@H]1C[C@H](Nc2cc(C3CC3)cnc2C(=O)N(CC(C)C)[C@@H]2CNC[C@H](c3ncon3)C2)C1", "note": "[Compound 39, (3S)—{N-(2-methylpropyl), N-{5-cyclopropyl-3-[3-(trans-methoxy)cyclobutyl]amino}pyridine-2-carbonyl}amino-(5R)-(1,2,4-oxadiazol-3-yl)-piperidine]", "IC50": "< 10"},
      {"smiles": "CO[C@H]1C[C@H](Nc2cc(C3CC3)cnc2C(=O)N(CC(C)C)[C@@H]2CNC[C@H](c3nnco3)C2)C1", "note": "[Compound 40, (3S)—{N-(2-methylpropyl), N-{5-cyclopropyl-3-[3-(trans-methoxy)cyclobutyl]amino}pyridine-2-carbonyl}amino-(5R)-(1,3,4-oxadiazol-2-yl)-piperidine]", "IC50": "< 10"},
      {"smiles": "CO[C@H]1C[C@H](Nc2cc(C3CC3)cnc2C(=O)N(CC2CC2)[C@@H]2CNC[C@H](c3nnc(C)o3)C2)C1", "note": "[Compound 41]", "IC50": "< 10"},
      {"smiles": "CC(C)CN(C(=O)c1ncc(C2CC2)cc1NC1COC1)[C@@H]1CNC[C@H](c2ncon2)C1", "note": "[Compound 42, (3S)—{N-(2-methylpropyl), N-[5-cyclopropyl-3-(oxetan-3-yl)amino]pyridine-2-carbonyl}amino-(5R)-(1,2,4-oxadiazol-3-yl)-piperidine]", "IC50": "< 30"},
      {"smiles": "CC(C)CN(C(=O)c1ncc(C(F)(F)F)cc1NC1COC1)[C@@H]1CNC[C@H](C(=O)N2CCOCC2)C1", "note": "[Compound 43, (3S)—{N-(2-methylpropyl), N-[5-trifluoromethyl-3-(oxetan-3-yl)amino]pyridine-2-carbonyl}amino-(5R)-(morpholine-N-carbonyl)-piperidine]", "IC50": "< 10"},
      {"smiles": "[2H]C([2H])([2H])O[C@H]1C[C@H](Nc2cc(C3CC3)cnc2C(=O)N(CC(C)C)[C@@H]2CNC[C@H](c3nnco3)C2)C1", "note": "[Compound 45, (3S)—{N-(2-methylpropyl), N-{5-cyclopropyl-3-[3-(trans-methoxy-d3)cyclobutyl]amino}pyridine-2-carbonyl}amino-(5R)-(1,3,4-oxadiazol-2-yl)-piperidine]", "IC50": "< 10"},
      {"smiles": "CO[C@H]1C[C@H](Nc2nc(C3CC3)ncc2C(=O)N(CC(C)C)[C@@H]2CNC[C@H](C(=O)N3CCOC[C@@H]3C)C2)C1", "note": "[Compound 46, (3S)—{N-(2-methylpropyl), N-{2-cyclopropyl-3-[3-(trans-methoxy)cyclobutyl]amino}pyrimidine-5-carbonyl}amino-(5R)-[(3S)-methylmorpholine-N-carbonyl]-piperidine]", "IC50": "< 250"}
    ]}
  ]
}
